Where two headings read alike, the source gives them in different places.
Tests used:
[1] = biological target: GSK3α (GST-full length GSK3α) (Homo sapiens (Human), UniProt P49840); assay: GSK3α TR-FRET kinase assay; format: biochemical
Summary of the method: (§1)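 Compound preincubated 30 min, then 1 nM GST-full-length GSK3α or GSK3b run 100 min at ambient temperature with 200 nM biotinylated, S645-prephosphorylated glycogen synthase 631-650 peptide in Tris pH 7.5, MgCl2, DTT, BSA, 1% DMSO. ATP 4 μM (α) or 2 μM (β), or 1 mM. EDTA-quenched; Tb-anti-pSer641/streptavidin-d2 TR-FRET 665/615 ratio gave IC50.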

[2] = biological target: GSK3b (GST-full length GSK3b) (Homo sapiens (Human), UniProt P49841); assay: GSK3b TR-FRET kinase assay; format: biochemical
Summary of the method: as §1

[3] = 1 nM GSK3α, 4 μM ATP, 30 minute preincubation, geometric mean, read-out: GSK3-A TR-FRET BIOCHEMICAL (TR-FRET), GMean, IC50
[4] = 1 nM GSK3b, 2 μM ATP, 30 minute preincubation, geometric mean, read-out: GSK3-B TR-FRET BIOCHEMICAL (TR-FRET), GMean, IC50
[5] = read-out: GSK3-A (TR-FRET 1 mM ATP), GMean, IC50, 1 mM ATP, geometric mean
[6] = read-out: GSK3-B (TR-FRET 1 mM ATP), GMean, IC50, 1 mM ATP, geometric mean
[7] = 1 nM GSK3α, 4 μM ATP, 30 minute preincubation, Table 16, read-out: GSK3-A TR-FRET BIOCHEMICAL (TR-FRET)
[8] = 1 nM GSK3b, 2 μM ATP, 30 minute preincubation, Table 16, read-out: GSK3-B TR-FRET BIOCHEMICAL (TR-FRET)

Chain of GSK3α (GST-full length GSK3α) (P49840 whole entry): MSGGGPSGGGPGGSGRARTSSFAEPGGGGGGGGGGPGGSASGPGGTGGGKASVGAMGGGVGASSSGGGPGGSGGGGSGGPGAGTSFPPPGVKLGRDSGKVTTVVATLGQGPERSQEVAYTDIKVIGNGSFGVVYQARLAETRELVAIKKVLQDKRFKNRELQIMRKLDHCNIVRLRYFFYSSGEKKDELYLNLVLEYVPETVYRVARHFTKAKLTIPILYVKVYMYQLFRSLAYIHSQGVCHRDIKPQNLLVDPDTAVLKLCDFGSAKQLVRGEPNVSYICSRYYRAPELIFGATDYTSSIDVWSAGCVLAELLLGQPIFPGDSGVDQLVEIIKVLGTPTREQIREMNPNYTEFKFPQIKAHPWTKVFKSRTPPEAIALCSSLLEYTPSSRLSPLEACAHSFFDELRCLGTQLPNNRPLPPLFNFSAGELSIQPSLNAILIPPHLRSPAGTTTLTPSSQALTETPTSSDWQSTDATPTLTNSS
Chain of GSK3b (GST-full length GSK3b) (P49841 whole entry): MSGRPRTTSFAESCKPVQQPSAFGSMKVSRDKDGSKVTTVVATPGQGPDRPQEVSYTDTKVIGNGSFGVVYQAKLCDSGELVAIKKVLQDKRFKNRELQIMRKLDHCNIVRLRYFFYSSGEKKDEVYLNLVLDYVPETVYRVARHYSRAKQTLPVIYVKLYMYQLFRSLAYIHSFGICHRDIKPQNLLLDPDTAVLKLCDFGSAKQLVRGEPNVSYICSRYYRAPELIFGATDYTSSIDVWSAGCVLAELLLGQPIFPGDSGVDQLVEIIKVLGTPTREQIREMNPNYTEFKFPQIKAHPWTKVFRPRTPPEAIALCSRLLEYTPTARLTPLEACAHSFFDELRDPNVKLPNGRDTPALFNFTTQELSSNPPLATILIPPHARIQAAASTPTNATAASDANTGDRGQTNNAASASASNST

Compound	IC50 [1, 3] [nM]	IC50 [2, 4] [nM]	also measured
CCC1(c2cccc(-c3ccnc4c(Cl)cccc34)c2)C2=C(CC(C)(C)NC2=O)Nc2n[nH]cc21 (stereo not shown) [Compound 948659]	> 5000	> 5000	
CCC1(c2cccc(-c3ccnc4cc(OC)ccc34)c2)C2=C(CC(C)(C)NC2=O)Nc2n[nH]cc21 (stereo not shown) [Compound 948661]	≤ 100	100 to 1000	
CCC1(c2cccc(-c3ccnc(N4CCCCC4)c3)c2)C2=C(CC(C)(C)NC2=O)Nc2n[nH]cc21 (stereo not shown) [Compound 948663]	> 5000	> 5000	
CCC1(c2cccc(-c3cc(C)ncc3F)c2)C2=C(CC(C)(C)NC2=O)Nc2n[nH]c(C)c21 (stereo not shown) [Compound 948761]	≤ 100	≤ 100	
CCC1(c2cccc(OC)c2)C2=C(CC(C)(C)NC2=O)Nc2n[nH]c(C)c21 (stereo not shown) [Compound 948763]	≤ 100	100 to 1000	
CCC1(c2cccc(Oc3ncccn3)c2)C2=C(CC(C)(C)NC2=O)Nc2n[nH]cc21 (stereo not shown) [Compound 948764]	≤ 100	100 to 1000	
CCC1(c2cccc(-c3cc(C)nnc3C)c2)C2=C(CC(C)(C)NC2=O)Nc2n[nH]c(C)c21 (stereo not shown) [Compound 948765]	≤ 100	≤ 100	
CCC1(c2cccc(-c3cnn(C)c3)c2)C2=C(CC(C)(C)NC2=O)Nc2n[nH]c(Cl)c21 (stereo not shown) [Compound 948767]	≤ 100	≤ 100	
CCC1(c2cccc(-c3cn(C)nc3C)c2)C2=C(CC(C)(C)NC2=O)Nc2n[nH]c(Cl)c21 (stereo not shown) [Compound 948768]	≤ 100	≤ 100	
CC[C@]1(c2cccc(-c3ccnc4c3CCC4)c2)C2=C(CC(C)(C)NC2=O)Nc2n[nH]c(C(F)(F)F)c21 [Compound 948769]	100 to 1000	100 to 1000	
CC[C@]1(c2cccc(-c3ccncc3F)c2)C2=C(CC(C)(C)NC2=O)Nc2[nH]nc(C(F)(F)F)c21 [Compound 948770]	100 to 1000	100 to 1000	
CC[C@]1(c2cccc(S(=O)(=O)C3CC3)c2)C2=C(CC(C)(C)NC2=O)Nc2[nH]nc(C(F)(F)F)c21 [Compound 948771]	≤ 100	≤ 100	IC50 [1, 5]: ≤ 100 nM; IC50 [2, 6]: 100 to 1000 nM
CCC1(c2cccc(-c3ccnc(C)c3)c2)C2=C(CC(C)(C)NC2=O)Nc2n[nH]c(C(F)(F)F)c21 (stereo not shown) [Compound 948773]	1000 to 5000	> 5000	
CC[C@@]1(c2cccc(-c3ccnc(C)c3)c2)C2=C(CC(C)(C)NC2=O)Nc2n[nH]c(C(F)(F)F)c21 [Compound 948774]	≤ 100	≤ 100	
CC[C@@]1(c2cccc(-c3cnn4c3CCCC4)c2)C2=C(CC(C)(C)NC2=O)Nc2[nH]nc(C(F)(F)F)c21 [Compound 948775]	≤ 100	≤ 100	IC50 ([1]; GSK3-A (TR-FRET 1 mM ATP), GMean, IC50, 1 mM ATP, geometric mean): ≤ 100 nM; IC50 ([2]; GSK3-B (TR-FRET 1 mM ATP), GMean, IC50, 1 mM ATP, geometric mean): 100 to 1000 nM
CCC1(c2cccc(S(=O)(=O)C3CC3)c2)C2=C(CC(C)(C)NC2=O)Nc2n[nH]c(C(F)(F)F)c21 (stereo not shown) [Compound 948776]	100 to 1000	100 to 1000	
CC[C@@]1(c2cccc(-c3ccncc3F)c2)C2=C(CC(C)(C)NC2=O)Nc2[nH]nc(C(F)(F)F)c21 [Compound 948777]	≤ 100	≤ 100	
CCC1(c2cccc(C3CN(C(C)=O)C3)c2)C2=C(CC(C)(C)CC2=O)Nc2n[nH]cc21 (stereo not shown) [Compound 948779]			IC50 [1, 7]: 1000 to 5000 nM; IC50 [2, 8]: > 5000 nM
CCC1(c2cccc(OCC(F)F)c2)C2=C(CC(C)(C)CC2=O)Nc2n[nH]cc21 (stereo not shown) [Compound 948793]			IC50 [1, 7]: ≤ 100 nM; IC50 [1, 5]: 100 to 1000 nM; IC50 [2, 8]: ≤ 100 nM; IC50 [2, 6]: > 5000 nM
CC[C@@]1(c2cccc(-c3ccnc4c(F)cccc34)c2)C2=C(CC(C)(C)NC2=O)Nc2n[nH]cc21 [Compound 948813]	1000 to 5000	> 5000	
CC[C@@]1(c2cccc(-c3cnn(C)c3C#N)c2)C2=C(CC(C)(C)NC2=O)Nc2n[nH]cc21 [Compound 948814]	> 5000	> 5000	
CC[C@]1(c2cccc(-c3cnn(C)c3C(F)(F)F)c2)C2=C(CC(C)(C)NC2=O)Nc2n[nH]cc21 [Compound 948815]	≤ 100	100 to 1000	IC50 [1, 5]: 100 to 1000 nM; IC50 [2, 6]: > 5000 nM
CC[C@@]1(c2cccc(-c3cnn(C(F)F)c3)c2)C2=C(CC(C)(C)NC2=O)Nc2n[nH]cc21 [Compound 948816]	> 5000	> 5000	
CC[C@@]1(c2cccc(-c3ccnc4c3cnn4C)c2)C2=C(CC(C)(C)NC2=O)Nc2n[nH]cc21 [Compound 948817]	> 5000	> 5000	

Compound	IC50 [1, 3] [nM]	IC50 [2, 4] [nM]	also measured
CC[C@@]1(c2cccc(-c3c(C)c(C)nn3C)c2)C2=C(CC(C)(C)NC2=O)Nc2n[nH]cc21 [Compound 948818]	> 5000	> 5000	
CC[C@@]1(c2cccc(-c3ccnc4cnccc34)c2)C2=C(CC(C)(C)NC2=O)Nc2n[nH]cc21 [Compound 948819]	1000 to 5000	> 5000	
CCC1(c2cccc(-c3cnn(C)c3C(F)(F)F)c2)C2=C(CC(C)(C)NC2=O)Nc2n[nH]cc21 (stereo not shown) [Compound 948826]	1000 to 5000	> 5000	
CCC1(c2cccc(-c3cnn(C)c3C#N)c2)C2=C(CC(C)(C)NC2=O)Nc2n[nH]cc21 (stereo not shown) [Compound 948827]	≤ 100	100 to 1000	
CC[C@@]1(c2cccc(-c3c(C)cncc3C)c2)C2=C(CC(C)(C)NC2=O)Nc2n[nH]cc21 [Compound 948829]	> 5000	> 5000	
CCC1(c2cccc(-c3ccnc(C)c3)c2)C2=C(CC(C)(C)NC2=O)Nc2n[nH]c(Cl)c21 (stereo not shown) [Compound 948998]	≤ 100	≤ 100	IC50 [1, 5]: 100 to 1000 nM; IC50 [2, 6]: 1000 to 5000 nM
CCC1(c2cccc(-c3ccncc3F)c2)C2=C(CC(C)(C)NC2=O)Nc2n[nH]c(F)c21 (stereo not shown) [Compound 948999]	≤ 100	100 to 1000	
CC[C@]1(c2cccc(N3CCOCC3)c2)C2=C(CC(C)(C)NC2=O)Nc2n[nH]c(C(F)(F)F)c21 [Compound 949000]	100 to 1000	100 to 1000	
CCC1(c2cccc(-c3ccnc(C)c3)c2)C2=C(CC(C)(C)NC2=O)Nc2n[nH]c(F)c21 (stereo not shown) [Compound 949001]	100 to 1000	100 to 1000	
CC[C@]1(c2cccc(-c3cnn(C)c3)c2)C2=C(CC(C)(C)NC2=O)Nc2n[nH]c(F)c21 [Compound 949002]	1000 to 5000	> 5000	
CCC1(c2cccc(-c3cncn3C)c2)C2=C(CC(C)(C)NC2=O)Nc2n[nH]c(C(F)(F)F)c21 (stereo not shown) [Compound 949003]	100 to 1000	100 to 1000	
CCC1(c2cccc(-c3ccnc(C)c3)c2)C2=C(CC(C)(C)N(C)C2=O)Nc2n[nH]cc21 (stereo not shown) [Compound 949004]	≤ 100	100 to 1000	
CCC1(c2cccc(-c3cn(C)nc3C)c2)C2=C(CC(C)(C)N(C)C2=O)Nc2n[nH]cc21 (stereo not shown) [Compound 949005]	≤ 100	≤ 100	IC50 [1, 5]: ≤ 100 nM; IC50 [2, 6]: 1000 to 5000 nM
CC[C@]1(c2cccc(C(F)F)c2)C2=C(CC(C)(C)NC2=O)Nc2n[nH]cc21 [Compound 949006]	≤ 100	100 to 1000	IC50 [1, 5]: 100 to 1000 nM; IC50 [2, 6]: > 5000 nM
CC[C@@]1(c2cccc(C(F)F)c2)C2=C(CC(C)(C)NC2=O)Nc2n[nH]cc21 [Compound 949007]	1000 to 5000	> 5000	
CCC1(c2cccc(-c3cn(C)nc3C)c2)C2=C(CC(C)(C)N(C)C2=O)Nc2n[nH]cc21 (stereo not shown) [Compound 949008]	1000 to 5000	> 5000	
CCC1(c2cccc(-c3ccnc(C)c3)c2)C2=C(CC(C)(C)N(C)C2=O)Nc2n[nH]cc21 (stereo not shown) [Compound 949009]	> 5000	> 5000	
CCC1(c2cccc(-c3cncn3C)c2)C2=C(CC(C)(C)NC2=O)Nc2n[nH]c(C(F)(F)F)c21 (stereo not shown) [Compound 949010]	≤ 100	≤ 100	IC50 [1, 5]: ≤ 100 nM; IC50 [2, 6]: ≤ 100 nM
CCC1(c2cccc(-c3cnn(C)c3)c2)C2=C(CC(C)(C)NC2=O)Nc2n[nH]c(F)c21 (stereo not shown) [Compound 949011]	≤ 100	100 to 1000	
CC[C@@]1(c2cccc(-c3ccnc(C)c3)c2)C2=C(CC(C)(C)NC2=O)Nc2n[nH]c(F)c21 [Compound 949012]	≤ 100	100 to 1000	
CC[C@@]1(c2cccc(N3CCOCC3)c2)C2=C(CC(C)(C)NC2=O)Nc2n[nH]c(C(F)(F)F)c21 [Compound 949013]	≤ 100	≤ 100	
CCC1(c2cccc(C(F)(F)F)c2)C2=C(CCN(c3cccc(C)c3)C2=O)Nc2n[nH]cc21 (stereo not shown) [Compound 949040]	≤ 100	100 to 1000	
CC[C@]1(c2cccc(C(F)(F)F)c2)C2=C(CCN(c3cccc(C)c3)C2=O)Nc2n[nH]cc21 [Compound 949041]	1000 to 5000	> 5000	
CCC1(c2cccc(C3CCCC3)c2)C2=C(CC(C)(C)CC2=O)Nc2n[nH]cc21 (stereo not shown) [Compound 949082]			IC50 ([1]; 1 nM GSK3α, 4 μM ATP, 30 minute preincubation, Table 16, read-out: GSK3-A TR-FRET BIOCHEMICAL (TR-FRET), IC50): ≤ 100 nM; IC50 ([2]; 1 nM GSK3b, 2 μM ATP, 30 minute preincubation, Table 16, read-out: GSK3-B TR-FRET BIOCHEMICAL (TR-FRET), IC50): ≤ 100 nM

— patent US20250313563A1, “GLYCOGEN SYNTHASE KINASE 3 INHIBITORS AND USES THEREOF” (The Broad Institute, Inc., priority 2022, published 2025)
